US20120231482A1, “METHOD, KIT OR DIAGNOSTIC FOR THE DETECTION OF REAGENTS WHICH INDUCE ALTERED CONTRACTILITY” (THE JOHNS HOPKINS UNIVERSITY, priority 2009, published 2012)

How the values were obtained:
[1] = molecular target: T1, tropomyosin (Rattus norvegicus, UniProt P04692); test: Gel shift assay, reducing/non-reducing western blot of cardiac myofibrils; format: biochemical; conditions: non-reducing; lost with 5 mM DTT
T1 construct: Rat myofibrillar preparations, as described in [7], were obtained from frozen ventricles (Pel Freez Biologicals); tissue Pel Freez Biologicals; host or cells: myofibrils from frozen rat ventricles
Experimental: (§1) FIG. 4. Validation and characterizations of HNO modifications. 1 μg of rat cardiac myofibrils treated with HNO donors or control compounds were separated under reducing or nonreducing conditions and western blots probed for candidate proteins tropomyosin, actin, myosin heavy chain, myosin light chain 1 (n=4). […] Silver stained gel analysis indicated a protein band with […] gel mobility that was lost with DTT.
FIG. 5. Evaluation of the interaction between actin and tropomyosin with NCA treatment. Purified rabbit skeletal tropomyosin (0.03 μg) and isolated rat cardiac myofibrils (1 μg) were treated with NCA or AS and evaluated by 1D non-reducing western blot probing for tropomyosin (A) and actin (B) (n=3). […] (C) Fluorescent DIGE analysis of samples from A and B independent labeled indicates NCA specific band (green) above purified TM (blue) and below AS treated myofibrils (red) (n=3). (D) MS analysis of the same gel region identified both tropomyosin and actin in non-reduced lane but not with DTT treatment (n=2).
Gel shift assay. 10 μg of rat myofibrils/treatment were diluted to 0.5 μg/μl in HEN including 0.1% (w/v) SDS and exposed to a treatment for 20 min at 37° C. Samples were diluted to 0.1 ug/ul in 1×LSD sample buffer, treated with 0, 5 or 100 mM DTT and separated by SDS PAGE. Proteins were silver stained or transferred to nitrocellulose and immunoblotted with primary antibodies for tropomyosin sarcomeric (CH1, Sigma-Aldrich Co., St. Louis, Mo., USA), actin (AC-40, Sigma-Aldrich Co., St. Louis, Mo., USA), myosin light chain 1 (MLM527, Abcam, Cambridge, Mass., USA) or myosin heavy chain (3-48, Abcam, Cambridge, Mass., USA). For some silver stained gel bands of interest in-gel digestion was done following the protocol outlined in Shevchenko et al.. Gel slices of interest were excised from the gels cut into 1 mm^3 pieces. Silver stained gel pieces were destained in 1:1(v/v) 30 mM Potassium ferricyanide and 100 mM Sodium thiosulfate and wash three times with ddH2O. Gel pieces were dehydrated in 100% acetonitrile and reswelled in 10 mM DTT and incubated at 55° C. for 1 hour. After the DTT solution was removed, a solution of 55 mM iodoacetimide was added and gel slices were incubated at room temperature protected from light. Gel slices were then washed 3 times with 50% (v/v) ACN, 25 mM (NH4)HCO3 and then fully dehydrated in 100% ACN and dried in a speed vac. Gel pieces were reswelled in a 12.5 ng/μL trypsin (Promega, Madison Wis. USA) solution containing 25 mM (NH4)HCO3 and incubated at 37° C. for >16 hours. Digested peptides were extracted by addition of 5% (v/v) formic acid and incubation for 15 min followed by addition of an equal volume of 100% ACN and 15 min incubation, this step was repeated and the extracts were combined. […]

[2] = system: skeletal muscle; test: Steady-state force-[Ca2+]i relations of skeletal muscle; format: cell-based, rat
Source text: FIG. 6. MLC1 Cys81 necessary for increase in Fmax induced by treatment with HNO donors. (a) Sequence alignment comparing isoforms of rat cardiac (SEQ ID NO:16) and skeletal MLC1 (SEQ ID NO:17) in the region surrounding cardiac Cys81. (b) Steady-state force-[Ca^2+]i relations in control (o) versus NCA-treated (•) from cardiac or skeletal trabeculae indicating loss of increase in maximum force with loss of Cys81 in skeletal isoform with NCA (n=5, each group). (c) 2D Gel shift assay (non-reduced, NR and reduced, DTT) using 10 μg of skeletal or cardiac myofibrils indicating loss of higher molecular weight forms of MLC1 in skeletal HNO treated preparations while maintaining higher molecular weight form of TM (n=3).
To determine if MLC1 Cys81 is involved in the increased maximum force production, the effect of HNO donors was investigated in skeletal muscle preparations. Skeletal muscle isoforms of myofilament proteins contain all of the potential target Cys except for MLC1, which lacks the candidate site Cys81 providing a natural mutant sequence (FIG. 6A). […] The same insensitivity of Fmax to AS was also observed in skinned skeletal muscles (data not shown).

[3] = molecular target: T2, myosin heavy chain and light chain 1 (Rattus norvegicus, UniProt P02563+P16409); test: Gel shift assay, reducing/non-reducing western blot of cardiac myofibrils; format: biochemical; conditions: non-reducing; lost with 5 mM DTT
T2 construct: 1 μg of rat cardiac myofibrils treated with HNO donors or control compounds; tissue Pel Freez Biologicals; host or cells: myofibrils from frozen rat ventricles
Experimental: as §1
Gel shift assay. 10 μg of rat myofibrils/treatment were diluted to 0.5 μg/μl in HEN including 0.1% (w/v) SDS and exposed to a treatment for 20 min at 37° C. Samples were diluted to 0.1 ug/ul in 1×LSD sample buffer, treated with 0, 5 or 100 mM DTT and separated by SDS PAGE. Proteins were silver stained or transferred to nitrocellulose and immunoblotted with primary antibodies for tropomyosin sarcomeric (CH1, Sigma-Aldrich Co., St. Louis, Mo., USA), actin (AC-40, Sigma-Aldrich Co., St. Louis, Mo., USA), myosin light chain 1 (MLM527, Abcam, Cambridge, Mass., USA) or myosin heavy chain (3-48, Abcam, Cambridge, Mass., USA). For some silver stained gel bands of interest in-gel digestion was done following the protocol outlined in Shevchenko et al.. Gel slices of interest were excised from the gels cut into 1 mm^3 pieces. Silver stained gel pieces were destained in 1:1(v/v) 30 mM Potassium ferricyanide and 100 mM Sodium thiosulfate and wash three times with ddH2O. […]

T2 sequence (P02563 whole entry): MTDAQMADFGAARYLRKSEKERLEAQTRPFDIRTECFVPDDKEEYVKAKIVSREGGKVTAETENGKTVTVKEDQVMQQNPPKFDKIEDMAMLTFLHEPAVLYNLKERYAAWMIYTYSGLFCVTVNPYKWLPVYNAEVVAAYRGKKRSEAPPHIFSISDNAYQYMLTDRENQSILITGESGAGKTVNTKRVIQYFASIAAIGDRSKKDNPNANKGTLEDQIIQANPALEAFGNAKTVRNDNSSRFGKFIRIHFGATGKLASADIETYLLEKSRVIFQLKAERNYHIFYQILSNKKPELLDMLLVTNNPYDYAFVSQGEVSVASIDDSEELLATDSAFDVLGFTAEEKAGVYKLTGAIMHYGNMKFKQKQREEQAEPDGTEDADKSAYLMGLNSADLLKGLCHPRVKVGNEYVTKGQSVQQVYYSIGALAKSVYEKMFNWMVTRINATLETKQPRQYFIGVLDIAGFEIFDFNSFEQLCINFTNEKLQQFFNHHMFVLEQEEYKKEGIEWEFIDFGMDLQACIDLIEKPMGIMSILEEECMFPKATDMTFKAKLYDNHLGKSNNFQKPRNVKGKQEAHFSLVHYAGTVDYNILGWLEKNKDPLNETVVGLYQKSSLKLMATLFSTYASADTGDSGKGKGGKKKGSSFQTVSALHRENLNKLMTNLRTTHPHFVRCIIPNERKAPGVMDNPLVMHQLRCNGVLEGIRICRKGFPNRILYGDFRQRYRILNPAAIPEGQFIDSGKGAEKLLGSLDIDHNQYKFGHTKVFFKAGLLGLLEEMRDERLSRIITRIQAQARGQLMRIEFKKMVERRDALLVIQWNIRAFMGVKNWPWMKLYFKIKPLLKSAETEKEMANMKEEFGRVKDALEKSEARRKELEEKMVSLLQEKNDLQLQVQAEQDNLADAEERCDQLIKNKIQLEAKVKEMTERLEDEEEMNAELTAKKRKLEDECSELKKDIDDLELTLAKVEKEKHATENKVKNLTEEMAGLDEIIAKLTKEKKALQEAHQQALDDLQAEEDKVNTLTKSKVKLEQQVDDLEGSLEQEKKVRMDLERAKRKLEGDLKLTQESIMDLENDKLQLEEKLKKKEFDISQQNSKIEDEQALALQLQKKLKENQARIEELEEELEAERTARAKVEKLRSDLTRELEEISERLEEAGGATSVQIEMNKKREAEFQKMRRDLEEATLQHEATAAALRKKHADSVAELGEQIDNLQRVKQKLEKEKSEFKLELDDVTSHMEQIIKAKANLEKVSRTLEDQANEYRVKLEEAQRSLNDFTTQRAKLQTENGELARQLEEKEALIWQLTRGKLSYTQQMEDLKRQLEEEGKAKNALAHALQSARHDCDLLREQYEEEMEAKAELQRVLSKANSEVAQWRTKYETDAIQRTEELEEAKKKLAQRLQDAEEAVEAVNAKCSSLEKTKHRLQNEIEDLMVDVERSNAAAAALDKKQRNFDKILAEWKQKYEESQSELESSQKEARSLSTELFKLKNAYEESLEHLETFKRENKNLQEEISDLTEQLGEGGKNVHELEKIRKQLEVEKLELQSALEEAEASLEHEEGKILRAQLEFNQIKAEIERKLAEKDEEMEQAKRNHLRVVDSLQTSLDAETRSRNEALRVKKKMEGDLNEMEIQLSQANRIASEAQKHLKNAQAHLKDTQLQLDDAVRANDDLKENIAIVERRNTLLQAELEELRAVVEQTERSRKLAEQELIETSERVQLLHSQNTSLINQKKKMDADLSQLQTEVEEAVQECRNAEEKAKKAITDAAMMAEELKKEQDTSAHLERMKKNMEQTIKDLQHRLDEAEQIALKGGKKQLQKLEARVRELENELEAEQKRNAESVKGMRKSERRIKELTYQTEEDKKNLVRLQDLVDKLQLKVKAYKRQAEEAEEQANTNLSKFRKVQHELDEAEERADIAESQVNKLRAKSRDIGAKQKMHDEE
T2 sequence (P16409 2-200 limits assumed): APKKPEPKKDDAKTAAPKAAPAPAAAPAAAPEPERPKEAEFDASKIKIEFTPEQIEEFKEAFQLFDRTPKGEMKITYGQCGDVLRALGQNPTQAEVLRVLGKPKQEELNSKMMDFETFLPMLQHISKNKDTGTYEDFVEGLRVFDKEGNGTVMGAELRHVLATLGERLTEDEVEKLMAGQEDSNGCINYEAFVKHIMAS
T2 sequence (P08733 2-166 partner limits assumed): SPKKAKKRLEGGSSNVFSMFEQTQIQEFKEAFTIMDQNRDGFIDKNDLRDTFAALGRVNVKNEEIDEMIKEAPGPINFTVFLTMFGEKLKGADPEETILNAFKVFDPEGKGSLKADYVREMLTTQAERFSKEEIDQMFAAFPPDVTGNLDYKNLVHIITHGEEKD
T1 sequence (P04692 whole entry): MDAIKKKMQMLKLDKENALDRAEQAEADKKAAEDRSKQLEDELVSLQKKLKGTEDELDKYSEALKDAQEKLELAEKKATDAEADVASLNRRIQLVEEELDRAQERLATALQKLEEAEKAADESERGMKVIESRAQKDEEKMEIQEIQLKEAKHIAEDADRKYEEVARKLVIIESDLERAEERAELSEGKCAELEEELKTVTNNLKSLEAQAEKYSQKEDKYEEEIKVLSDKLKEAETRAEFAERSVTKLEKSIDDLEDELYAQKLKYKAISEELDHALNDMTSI

Compound	tropomyosin molecular weight shift [1]	Ca50 ([2]; skeletal muscle, NCA 25 μmol/L) [µM]	Fmax ([2]; skeletal muscle, NCA 25 μmol/L) [mN/mm^2]	Hill ([2]; skeletal muscle, NCA 25 μmol/L)	MLC1 homodimer population [3] [kDa]	Fmax ([2]; skinned skeletal muscles, AS, data not shown)
CC(=O)OC1(N=O)CCCCC1 [NCA, 1-nitrosocyclohexylacetate]	higher molecular weight species that was specific for NCA treatment	0.8 ± 0.1	33±3.8	4.36±0.81	~50	–
[Na+].[Na+].[O-][N+]([O-])=NO [AS, Angeli's Salt]	–	–	–	–	~50	insensitivity
